Results as given in the supplement of paper PMC10307832.

Tests used:
Experiment in all cases: relative viability (nuclei count vs DMSO), 5 days (fraction); higher = more cells survive
201T = test system: 201T
Procedure, shortened: (§1)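 Relative viability is defined as nuclei in treated wells over nuclei in vehicle wells. Duplicate plates were run and medians reported. Lung cancer cell lines in 1536-well plates were dosed by pin tool one day after seeding, with one drug or with a fixed anchor-drug dose plus five library-drug doses (not always all listed) in √10 steps, and nuclei were counted after 5 days.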

BEN = test system: BEN
Procedure, shortened: as §1

EMC-BAC-2 = test system: EMC-BAC-2
Procedure, shortened: as §1

HARA = test system: HARA
Procedure, shortened: as §1

HCC-44 = test system: HCC-44
Procedure, shortened: as §1

LOU-NH91 = test system: LOU-NH91
Procedure, shortened: as §1

NCI-H1395 = test system: NCI-H1395
Procedure, shortened: as §1

NCI-H1993 = test system: NCI-H1993
Procedure, shortened: as §1

NCI-H2023 = test system: NCI-H2023
Procedure, shortened: as §1

NCI-H2087 = test system: NCI-H2087
Procedure, shortened: as §1

NCI-H2126 = test system: NCI-H2126
Procedure, shortened: as §1

NCI-H2347 = test system: NCI-H2347
Procedure, shortened: as §1

NCI-H23 = test system: NCI-H23
Procedure, shortened: as §1

NCI-H3122 = test system: NCI-H3122
Procedure, shortened: as §1

NCI-H441 = test system: NCI-H441
Procedure, shortened: as §1

NCI-H596 = test system: NCI-H596
Procedure, shortened: as §1

NCI-H647 = test system: NCI-H647
Procedure, shortened: as §1

NCI-H727 = test system: NCI-H727
Procedure, shortened: as §1

NCI-H838 = test system: NCI-H838
Procedure, shortened: as §1

Nc1ccn([C@@H]2O[C@H](CO)[C@@H](O)[C@@H]2O)c(=O)n1 [Cytarabine] + CC1(C)CCC(c2ccc(Cl)cc2)=C(CN2CCN(c3ccc(C(=O)NS(=O)(=O)c4ccc(N[C@H](CCN5CCOCC5)CSc5ccccc5)c(S(=O)(=O)C(F)(F)F)c4)cc3)CC2)C1 [Navitoclax] (partner 0.5 µM)
relative viability (201T; first compound 0.005 µM): 1.24
relative viability (201T; first compound 0.01581 µM): 1.28
relative viability (201T; first compound 0.05 µM): 1.19
relative viability (201T; first compound 0.1581 µM): 1.16
relative viability (201T; first compound 0.5 µM): 1.14
relative viability (BEN; first compound 0.005 µM): 0.059
relative viability (BEN; first compound 0.01581 µM): 0.0619
relative viability (BEN; first compound 0.05 µM): 0.159
relative viability (BEN; first compound 0.1581 µM): 0.0433
relative viability (BEN; first compound 0.5 µM): 0.0457
relative viability (EMC-BAC-2; first compound 0.005 µM): 0.843
relative viability (EMC-BAC-2; first compound 0.01581 µM): 0.987
relative viability (EMC-BAC-2; first compound 0.05 µM): 0.789
relative viability (EMC-BAC-2; first compound 0.1581 µM): 0.243
relative viability (EMC-BAC-2; first compound 0.5 µM): 0.19
relative viability (HARA; first compound 0.005 µM): 1.09
relative viability (HARA; first compound 0.01581 µM): 0.593
relative viability (HARA; first compound 0.05 µM): 0.302
relative viability (HARA; first compound 0.1581 µM): 0.178
relative viability (HARA; first compound 0.5 µM): 0.131
relative viability (HCC-44; first compound 0.005 µM): 0.949
relative viability (HCC-44; first compound 0.01581 µM): 1.01
relative viability (HCC-44; first compound 0.05 µM): 0.534
relative viability (HCC-44; first compound 0.1581 µM): 0.563
relative viability (HCC-44; first compound 0.5 µM): 0.26
relative viability (LOU-NH91; first compound 0.005 µM): 0.693
relative viability (LOU-NH91; first compound 0.01581 µM): 0.606
relative viability (LOU-NH91; first compound 0.05 µM): 0.463
relative viability (LOU-NH91; first compound 0.1581 µM): 0.332
relative viability (LOU-NH91; first compound 0.5 µM): 0.35
relative viability (NCI-H1395; first compound 0.005 µM): 1.2
relative viability (NCI-H1395; first compound 0.01581 µM): 0.849
relative viability (NCI-H1395; first compound 0.05 µM): 0.65
relative viability (NCI-H1395; first compound 0.1581 µM): 0.48
relative viability (NCI-H1395; first compound 0.5 µM): 0.368
relative viability (NCI-H1993; first compound 0.005 µM): 0.92
relative viability (NCI-H1993; first compound 0.01581 µM): 0.949
relative viability (NCI-H1993; first compound 0.05 µM): 0.721
relative viability (NCI-H1993; first compound 0.1581 µM): 0.548
relative viability (NCI-H1993; first compound 0.5 µM): 0.624
relative viability (NCI-H2023; first compound 0.005 µM): 0.549
relative viability (NCI-H2023; first compound 0.01581 µM): 0.356
relative viability (NCI-H2023; first compound 0.05 µM): 0.195
relative viability (NCI-H2023; first compound 0.1581 µM): 0.108
relative viability (NCI-H2023; first compound 0.5 µM): 0.103
relative viability (NCI-H2087; first compound 0.005 µM): 0.973
relative viability (NCI-H2087; first compound 0.01581 µM): 1.04
relative viability (NCI-H2087; first compound 0.05 µM): 0.924
relative viability (NCI-H2087; first compound 0.1581 µM): 0.542
relative viability (NCI-H2087; first compound 0.5 µM): 0.452
relative viability (NCI-H2126; first compound 0.005 µM): 0.866
relative viability (NCI-H2126; first compound 0.01581 µM): 0.705
relative viability (NCI-H2126; first compound 0.05 µM): 0.679
relative viability (NCI-H2126; first compound 0.1581 µM): 0.53
relative viability (NCI-H2126; first compound 0.5 µM): 0.454
relative viability (NCI-H2347; first compound 0.005 µM): 0.911
relative viability (NCI-H2347; first compound 0.01581 µM): 0.786
relative viability (NCI-H2347; first compound 0.05 µM): 0.635
relative viability (NCI-H2347; first compound 0.1581 µM): 0.531
relative viability (NCI-H2347; first compound 0.5 µM): 0.449
relative viability (NCI-H23; first compound 0.005 µM): 0.753
relative viability (NCI-H23; first compound 0.01581 µM): 0.551
relative viability (NCI-H23; first compound 0.05 µM): 0.394
relative viability (NCI-H23; first compound 0.1581 µM): 0.206
relative viability (NCI-H23; first compound 0.5 µM): 0.173
relative viability (NCI-H3122; first compound 0.005 µM): 0.968
relative viability (NCI-H3122; first compound 0.01581 µM): 0.877
relative viability (NCI-H3122; first compound 0.05 µM): 0.876
relative viability (NCI-H3122; first compound 0.1581 µM): 0.682
relative viability (NCI-H3122; first compound 0.5 µM): 0.457
relative viability (NCI-H441; first compound 0.005 µM): 0.547
relative viability (NCI-H441; first compound 0.01581 µM): 0.648
relative viability (NCI-H441; first compound 0.05 µM): 0.556
relative viability (NCI-H441; first compound 0.1581 µM): 0.176
relative viability (NCI-H441; first compound 0.5 µM): 0.161
relative viability (NCI-H596; first compound 0.005 µM): 0.874
relative viability (NCI-H596; first compound 0.01581 µM): 0.894
relative viability (NCI-H596; first compound 0.05 µM): 0.611
relative viability (NCI-H596; first compound 0.1581 µM): 0.558
relative viability (NCI-H596; first compound 0.5 µM): 0.413
relative viability (NCI-H647; first compound 0.005 µM): 0.73
relative viability (NCI-H647; first compound 0.01581 µM): 0.517
relative viability (NCI-H647; first compound 0.05 µM): 0.148
relative viability (NCI-H647; first compound 0.1581 µM): 0.092
relative viability (NCI-H647; first compound 0.5 µM): 0.0675
relative viability (NCI-H727; first compound 0.005 µM): 0.372
relative viability (NCI-H727; first compound 0.01581 µM): 0.295
relative viability (NCI-H727; first compound 0.05 µM): 0.238
relative viability (NCI-H727; first compound 0.1581 µM): 0.181
relative viability (NCI-H727; first compound 0.5 µM): 0.182
relative viability (NCI-H838; first compound 0.005 µM): 1.29
relative viability (NCI-H838; first compound 0.01581 µM): 1.18
relative viability (NCI-H838; first compound 0.05 µM): 0.816
relative viability (NCI-H838; first compound 0.1581 µM): 0.446
relative viability (NCI-H838; first compound 0.5 µM): 0.262
